Test results reported in patent US20200123208A1, “PEPTIDES AND NEMATICIDAL COMPOSITIONS” (priority 2017, published 2020).

What was measured:
Globodera pallida J2s = test: Tomato invasion assay, G. pallida J2s; assay type: in vivo; details: exogenous pre-treatment of J2s
Experimental: (§1) Predicted uNLPs from both M. incognita and G. pallida were synthesised by EZBiolab and dissolved into pH adjusted ddH2O to make a 5 mM stock which was aliquoted and stored at −20° C. J2s of both M. incognita and G. pallida were incubated for 24 hours in 200 μl of each peptide in a 24 well plate (SPL Lifesciences, South Korea) at a defined concentration.
(§2) Tomato seeds were sterilised with 2.5% NaOCl for 15 minutes, washed 5 times in ddH2O and germinated on 0.5% Murashige and Skoog plates at 23° C. […] Invasion assays were performed by mixing 500 pre-treated M. incognita or G. pallida J2s with agar slurry and a single tomato seedling (2 days post germination) in a 6 well plate. Assays were left at 23° C. for 24 hours in the case of M. incognita and at 18° C. for 24 hours in the case of G. pallida under a 16 hour light and 8 hour darkness cycle. Seedlings were stained using acid fuschin [69] and the number of nematodes within the roots counted.

[1] = tested on: Meloidogyne incognita J2s; test: Tomato invasion assay, M. incognita J2s; assay type: in vivo
Experimental: as §1, §2

Sequence: SFDSFTGPGFTGLD [Mi-NLP-15b]
- effect of exogenous peptide exposure on G. pallida host invasion (in words) (Globodera pallida J2s): does not inhibit host invasion
- host invasion compared to controls ([1]; 100 μM uNLP, 24 h, tomato seedlings, normalised to negative control): 32.22%+/−8.122
- J2 invasion relative to control ([1]; Mi-NLP-15b 100 nM, 24 h): 69.9%+/−10.66
- J2 invasion relative to control ([1]; Mi-NLP-15b 1 μM, 24 h): 59.05%+/−8.545
- J2 invasion relative to control ([1]; Mi-NLP-15b 10 μM, 24 h): 54.62%+/−8.362
- J2 invasion relative to control ([1]; Mi-NLP-15b 100 μM, 24 h (dilution series)): 35.06%+/−6.407
